Measurements reported in the supplement of paper PMC13207355.
Structures can show the parent of a compound that is named as a salt.

Experiments:
Details in all cases: exposure time: 72 h
[1] = test system: E21 (patient-derived glioblastoma stem cells of mesenchymal subtype); test: surviving fraction (nuclei count normalised to DMSO); higher = more cells surviving (less toxic)
[2] = test system: E57 (patient-derived glioblastoma stem cells of mesenchymal subtype); test: as above
[3] = test system: E13 (patient-derived glioblastoma stem cells of classical subtype); test: as above
[4] = test system: E31 (patient-derived glioblastoma stem cells of proneural subtype); test: as above
[5] = test system: E34 (patient-derived glioblastoma stem cells of proneural subtype); test: as above
[6] = test system: FT3469 (normal neural stem cell line); test: as above
[7] = test system: E28 (patient-derived glioblastoma stem cells of classical subtype); test: as above
[8] = test system: E21; test: phenotypic distance (Euclidean, principal components) from DMSO controls (arbitrary units); higher = stronger morphological change
[9] = test system: E57; test: as above
[10] = test system: E13; test: as above
[11] = test system: E31; test: as above
[12] = test system: E34; test: as above
[13] = test system: FT3469; test: as above
[14] = test system: E28; test: as above
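For phenotypic distance (Euclidean, principal components) from DMSO controls in this document: cell Painting imaging in 384-well plates, CellProfiler features reduced to at least 20 principal components, Euclidean distance versus same-plate DMSO vehicle wells (0.1% v/v), median over six images per well.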
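For surviving fraction (nuclei count normalised to DMSO) in this document: nuclei counted by high-content imaging of Hoechst-stained cells in laminin-coated 384-well plates, relative to 0.1% DMSO vehicle wells, with staurosporine as cell-death control.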

COc1ccc2[nH]c([S+]([O-])Cc3ncc(C)c(OC)c3C)nc2c1 (stereo unspecified) [Omeprazole]
Details | phenotypic distance | surviving fraction
[1], 4.1 nM | – | 0.918
[1], 12.3 nM | – | 0.928
[1], 37 nM | – | 1.02
[1], 111.1 nM | – | 0.96
[1], 333.3 nM | – | 0.928
[1], 1000 nM | – | 0.956
[1], 3000 nM | – | 0.943
[2], 4.1 nM | – | 1.08
[2], 12.3 nM | – | 0.963
[2], 37 nM | – | 0.934
[2], 111.1 nM | – | 0.99
[2], 333.3 nM | – | 0.91
[2], 1000 nM | – | 1.01
[2], 3000 nM | – | 0.926
[3], 4.1 nM | – | 1.05
[3], 12.3 nM | – | 0.938
[3], 37 nM | – | 0.905
[3], 111.1 nM | – | 1.03
[3], 333.3 nM | – | 0.869
[3], 1000 nM | – | 1
[3], 3000 nM | – | 0.867
[4], 4.1 nM | – | 0.952
[4], 12.3 nM | – | 1.04
[4], 37 nM | – | 1.03
[4], 111.1 nM | – | 0.985
[4], 333.3 nM | – | 1.06
[4], 1000 nM | – | 0.947
[4], 3000 nM | – | 0.777
[5], 4.1 nM | – | 1.02
[5], 12.3 nM | – | 1.19
[5], 37 nM | – | 1.12
[5], 111.1 nM | – | 0.869
[5], 333.3 nM | – | 0.988
[5], 1000 nM | – | 1.04
[5], 3000 nM | – | 0.988
[6], 4.1 nM | – | 0.946
[6], 12.3 nM | – | 1.04
[6], 37 nM | – | 1
[6], 111.1 nM | – | 0.823
[6], 333.3 nM | – | 1.04
[6], 1000 nM | – | 0.979
[6], 3000 nM | – | 0.976
[7], 4.1 nM | – | 0.929
[7], 12.3 nM | – | 1.07
[7], 37 nM | – | 1.08
[7], 111.1 nM | – | 1.01
[7], 333.3 nM | – | 0.973
[7], 1000 nM | – | 1.12
[7], 3000 nM | – | 1.07
[8], 4.1 nM | 0.405 | –
[8], 12.3 nM | 0.66 | –
[8], 37 nM | 0.543 | –
[8], 111.1 nM | 0.648 | –
[8], 333.3 nM | 0.808 | –
[8], 1000 nM | 0.429 | –
[8], 3000 nM | 0.519 | –
[9], 4.1 nM | 0.551 | –
[9], 12.3 nM | 0.53 | –
[9], 37 nM | 0.343 | –
[9], 111.1 nM | 0.729 | –
[9], 333.3 nM | 0.596 | –
[9], 1000 nM | 0.755 | –
[9], 3000 nM | 1.11 | –
[10], 4.1 nM | 1.1 | –
[10], 12.3 nM | 0.755 | –
[10], 37 nM | 3.51 | –
[10], 111.1 nM | 0.567 | –
[10], 333.3 nM | 0.654 | –
[10], 1000 nM | 2.01 | –
[10], 3000 nM | 2.52 | –
[11], 4.1 nM | 0.572 | –
[11], 12.3 nM | 0.759 | –
[11], 37 nM | 0.563 | –
[11], 111.1 nM | 0.747 | –
[11], 333.3 nM | 0.837 | –
[11], 1000 nM | 0.778 | –
[11], 3000 nM | 0.726 | –
[12], 4.1 nM | 1.17 | –
[12], 12.3 nM | 0.774 | –
[12], 37 nM | 1.1 | –
[12], 111.1 nM | 0.579 | –
[12], 333.3 nM | 1.09 | –
[12], 1000 nM | 0.511 | –
[12], 3000 nM | 0.693 | –
[13], 4.1 nM | 0.923 | –
[13], 12.3 nM | 0.698 | –
[13], 37 nM | 0.685 | –
[13], 111.1 nM | 1.14 | –
[13], 333.3 nM | 0.549 | –
[13], 1000 nM | 0.593 | –
[13], 3000 nM | 0.772 | –
[14], 4.1 nM | 0.44 | –
[14], 12.3 nM | 0.413 | –
[14], 37 nM | 0.667 | –
[14], 111.1 nM | 0.895 | –
[14], 333.3 nM | 0.743 | –
[14], 1000 nM | 0.799 | –
[14], 3000 nM | 0.723 | –

C=CC(=O)Nc1cc(Nc2nccc(-c3cn(C)c4ccccc34)n2)c(OC)cc1N(C)CCN(C)C [Osimertinib mesylate]
Details | phenotypic distance | surviving fraction
[1], 4.1 nM | – | 1.11
[1], 12.3 nM | – | 0.955
[1], 37 nM | – | 0.892
[1], 111.1 nM | – | 1.05
[1], 333.3 nM | – | 0.931
[1], 1000 nM | – | 0.909
[1], 3000 nM | – | 0.455
[2], 4.1 nM | – | 0.979
[2], 12.3 nM | – | 0.953
[2], 37 nM | – | 0.84
[2], 111.1 nM | – | 0.864
[2], 333.3 nM | – | 0.875
[2], 1000 nM | – | 0.79
[2], 3000 nM | – | 0.547
[3], 4.1 nM | – | 0.883
[3], 12.3 nM | – | 1
[3], 37 nM | – | 0.978
[3], 111.1 nM | – | 0.951
[3], 333.3 nM | – | 1.03
[3], 1000 nM | – | 0.935
[3], 3000 nM | – | 0.547
[4], 4.1 nM | – | 0.963
[4], 12.3 nM | – | 0.947
[4], 37 nM | – | 1.02
[4], 111.1 nM | – | 0.92
[4], 333.3 nM | – | 0.743
[4], 1000 nM | – | 0.773
[4], 3000 nM | – | 0.435
[5], 4.1 nM | – | 0.904
[5], 12.3 nM | – | 0.975
[5], 37 nM | – | 0.973
[5], 111.1 nM | – | 0.878
[5], 333.3 nM | – | 1.13
[5], 1000 nM | – | 0.996
[5], 3000 nM | – | 0.702
[6], 4.1 nM | – | 0.963
[6], 12.3 nM | – | 0.989
[6], 37 nM | – | 1.02
[6], 111.1 nM | – | 1.03
[6], 333.3 nM | – | 0.843
[6], 1000 nM | – | 1.07
[6], 3000 nM | – | 0.638
[7], 4.1 nM | – | 0.973
[7], 12.3 nM | – | 1.04
[7], 37 nM | – | 0.86
[7], 111.1 nM | – | 1.01
[7], 333.3 nM | – | 0.864
[7], 1000 nM | – | 0.922
[7], 3000 nM | – | 0.496
[8], 4.1 nM | 0.814 | –
[8], 12.3 nM | 0.422 | –
[8], 37 nM | 1.04 | –
[8], 111.1 nM | 0.922 | –
[8], 333.3 nM | 1.1 | –
[8], 1000 nM | 1.12 | –
[8], 3000 nM | 4.6 | –
[9], 4.1 nM | 0.541 | –
[9], 12.3 nM | 0.746 | –
[9], 37 nM | 0.59 | –
[9], 111.1 nM | 1.02 | –
[9], 333.3 nM | 1.3 | –
[9], 1000 nM | 1.38 | –
[9], 3000 nM | 3.02 | –
[10], 4.1 nM | 0.974 | –
[10], 12.3 nM | 0.598 | –
[10], 37 nM | 0.826 | –
[10], 111.1 nM | 0.647 | –
[10], 333.3 nM | 1.84 | –
[10], 1000 nM | 1.28 | –
[10], 3000 nM | 2.96 | –
[11], 4.1 nM | 0.452 | –
[11], 12.3 nM | 0.55 | –
[11], 37 nM | 1.12 | –
[11], 111.1 nM | 0.652 | –
[11], 333.3 nM | 0.826 | –
[11], 1000 nM | 1.22 | –
[11], 3000 nM | 2.48 | –
[12], 4.1 nM | 0.472 | –
[12], 12.3 nM | 0.514 | –
[12], 37 nM | 0.843 | –
[12], 111.1 nM | 0.747 | –
[12], 333.3 nM | 1.66 | –
[12], 1000 nM | 0.95 | –
[12], 3000 nM | 1.31 | –
[13], 4.1 nM | 0.624 | –
[13], 12.3 nM | 0.753 | –
[13], 37 nM | 0.623 | –
[13], 111.1 nM | 0.801 | –
[13], 333.3 nM | 0.702 | –
[13], 1000 nM | 1.37 | –
[13], 3000 nM | 1.12 | –
[14], 4.1 nM | 0.567 | –
[14], 12.3 nM | 0.684 | –
[14], 37 nM | 0.633 | –
[14], 111.1 nM | 1.15 | –
[14], 333.3 nM | 0.864 | –
[14], 1000 nM | 1.16 | –
[14], 3000 nM | 2.16 | –
